# Data taken from ChEMBL document CHEMBL1201862, “PubChem BioAssay data set” (2004).
#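 Grown in 96-well plates, cells were treated for 48 hours with each compound at five concentrations. Insufficient inhibition: endpoint recorded as highest concentration tested. The concentration for 50% growth inhibition is given as GI50.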 Activity calls are given as the source filed them. Cut-off read from the data, not from the text of the source: active = GI50 up to about 1.1 µM and inactive = higher.
# Assays:
# Experiment in all cases: growth of human tumour cells (NCI), 48 h
# UACC-257 = system: UACC-257
# HCT-15 = system: HCT-15
# PC-3 = system: PC-3
# UO-31 = system: UO-31
# SN12C = system: SN12C
# LOX IMVI = system: LOX IMVI
# Malme-3M = system: Malme-3M
# RPMI-8226 = system: RPMI-8226
# IGROV-1 = system: IGROV-1
# NCI/ADR-RES = system: NCI/ADR-RES
# OVCAR-4 = system: OVCAR-4
# SF-295 = system: SF-295
# DU-145 = system: DU-145
# MDA-N = system: MDA-N
# SF-539 = system: SF-539
# COLO 205 = system: COLO 205
# CCRF-CEM = system: CCRF-CEM
# SK-MEL-2 = system: SK-MEL-2
# SNB-75 = system: SNB-75
# SNB-19 = system: SNB-19
# MDA-MB-231 = system: MDA-MB-231
# A498 = system: A498
# SW-620 = system: SW-620
# HCT-116 = system: HCT-116
# NCI-H23 = system: NCI-H23
# HT-29 = system: HT-29
# MDA-MB-435 = system: MDA-MB-435
# SF-268 = system: SF-268
# OVCAR-8 = system: OVCAR-8
# NCI-H522 = system: NCI-H522
# BT-549 = system: BT-549
# CAKI-1 = system: CAKI-1
# NCI-H226 = system: NCI-H226
# EKVX = system: EKVX
# HCC 2998 = system: HCC 2998
# KM12 = system: KM12
# 786-0 = system: 786-0
# NCI-H460 = system: NCI-H460
# UACC-62 = system: UACC-62
# RXF 393 = system: RXF 393
# K562 = system: K562
# TK-10 = system: TK-10
# ACHN = system: ACHN
# T47D = system: T47D
# M14 = system: M14
# SK-MEL-5 = system: SK-MEL-5
# SK-MEL-28 = system: SK-MEL-28
# MOLT-4 = system: MOLT-4
# U-251 = system: U-251
# MCF7 = system: MCF7
# A549 = system: A549
# OVCAR-5 = system: OVCAR-5
# HOP-62 = system: HOP-62
# SK-OV-3 = system: SK-OV-3
# Hs-578T = system: Hs-578T
# SR = system: SR
# HOP-92 = system: HOP-92
# OVCAR-3 = system: OVCAR-3
# HL-60 = system: HL-60
smiles,measurement,setting,value
C=CC[C@]1(/C=N/O)CN(S(=O)(=O)CC[Si](C)(C)C)C[C@H]2CC=CC[C@H]21,GI50,UACC-257,21.2 µM (inactive)
same,GI50,HCT-15,38.4 µM
same,GI50,PC-3,17.6 µM (inactive)
same,GI50,UO-31,26.3 µM (inactive)
same,GI50,SN12C,16.2 µM (inactive)
same,GI50,LOX IMVI,19.7 µM (inactive)
same,GI50,Malme-3M,20.5 µM (inactive)
same,GI50,RPMI-8226,13.4 µM (inactive)
same,GI50,IGROV-1,15.4 µM (inactive)
same,GI50,NCI/ADR-RES,39.8 µM (inactive)
same,GI50,OVCAR-4,14.8 µM (inactive)
same,GI50,SF-295,15.6 µM (inactive)
same,GI50,DU-145,20.6 µM (inactive)
same,GI50,MDA-N,20.3 µM (inactive)
same,GI50,SF-539,18.2 µM (inactive)
same,GI50,COLO 205,17.3 µM (inactive)
same,GI50,CCRF-CEM,14 µM (inactive)
same,GI50,SK-MEL-2,15 µM (inactive)
same,GI50,SNB-75,21 µM (inactive)
same,GI50,SNB-19,21.8 µM (inactive)
same,GI50,MDA-MB-231,24.4 µM (inactive)
same,GI50,A498,17.7 µM (inactive)
same,GI50,SW-620,18.1 µM (inactive)
same,GI50,HCT-116,14.2 µM (inactive)
same,GI50,NCI-H23,27.7 µM (inactive)
same,GI50,HT-29,16.2 µM (inactive)
same,GI50,MDA-MB-435,29.4 µM (inactive)
same,GI50,SF-268,32.9 µM (inactive)
same,GI50,OVCAR-8,24 µM (inactive)
same,GI50,NCI-H522,15.8 µM (inactive)
same,GI50,BT-549,28.5 µM (inactive)
same,GI50,CAKI-1,17.1 µM (inactive)
same,GI50,NCI-H226,19.5 µM (inactive)
same,GI50,EKVX,25.7 µM (inactive)
same,GI50,HCC 2998,16.7 µM (inactive)
same,GI50,KM12,24.6 µM (inactive)
same,GI50,786-0,18.5 µM (inactive)
same,GI50,NCI-H460,18.4 µM (inactive)
same,GI50,UACC-62,16.6 µM (inactive)
same,GI50,RXF 393,13.6 µM (inactive)
same,GI50,K562,18.4 µM (inactive)
same,GI50,TK-10,19.5 µM (inactive)
same,GI50,ACHN,> 10 µM (inactive)
same,GI50,T47D,26.4 µM (inactive)
same,GI50,M14,20.2 µM (inactive)
same,GI50,SK-MEL-5,29.4 µM (inactive)
same,GI50,SK-MEL-28,22.6 µM (inactive)
same,GI50,MOLT-4,16.4 µM (inactive)
same,GI50,U-251,17.7 µM (inactive)
same,GI50,MCF7,17.3 µM (inactive)
same,GI50,A549,16 µM (inactive)
same,GI50,OVCAR-5,21.7 µM (inactive)
same,GI50,HOP-62,20 µM (inactive)
same,GI50,SK-OV-3,24.2 µM (inactive)
C[C@@H]1CC[C@@H](C)[C@](C)(CCc2ccoc2)C/C=C\C=C/1C(=O)O,GI50,UACC-257,> 50 µM (inactive)
same,GI50,HCT-15,> 50 µM
same,GI50,PC-3,> 50 µM (inactive)
same,GI50,UO-31,> 50 µM (inactive)
same,GI50,SN12C,> 50 µM (inactive)
same,GI50,LOX IMVI,> 50 µM (inactive)
same,GI50,Malme-3M,> 50 µM (inactive)
same,GI50,Hs-578T,> 50 µM (inactive)
same,GI50,IGROV-1,> 50 µM (inactive)
same,GI50,NCI/ADR-RES,> 50 µM (inactive)
same,GI50,OVCAR-4,> 50 µM (inactive)
same,GI50,SR,> 50 µM (inactive)
same,GI50,SF-295,> 50 µM (inactive)
same,GI50,MDA-N,> 50 µM (inactive)
same,GI50,SF-539,> 50 µM (inactive)
same,GI50,COLO 205,> 50 µM (inactive)
same,GI50,CCRF-CEM,> 50 µM (inactive)
same,GI50,SK-MEL-2,> 50 µM (inactive)
same,GI50,SNB-75,> 50 µM (inactive)
same,GI50,SNB-19,> 50 µM (inactive)
same,GI50,MDA-MB-231,> 50 µM (inactive)
same,GI50,A498,> 50 µM (inactive)
same,GI50,SW-620,> 50 µM (inactive)
same,GI50,HCT-116,> 50 µM (inactive)
same,GI50,NCI-H23,32.1 µM (inactive)
same,GI50,HT-29,> 50 µM (inactive)
same,GI50,OVCAR-8,> 50 µM (inactive)
same,GI50,BT-549,> 50 µM (inactive)
same,GI50,CAKI-1,> 50 µM (inactive)
same,GI50,NCI-H226,> 50 µM (inactive)
same,GI50,EKVX,> 50 µM (inactive)
same,GI50,HCC 2998,> 50 µM (inactive)
same,GI50,KM12,> 50 µM (inactive)
same,GI50,786-0,> 50 µM (inactive)
same,GI50,NCI-H460,> 50 µM (inactive)
same,GI50,UACC-62,> 50 µM (inactive)
same,GI50,RXF 393,> 50 µM (inactive)
same,GI50,K562,> 50 µM (inactive)
same,GI50,TK-10,> 50 µM (inactive)
same,GI50,ACHN,> 50 µM (inactive)
same,GI50,HOP-92,> 50 µM (inactive)
same,GI50,OVCAR-3,> 50 µM (inactive)
same,GI50,M14,> 50 µM (inactive)
same,GI50,HL-60,15.3 µM (inactive)
same,GI50,SK-MEL-5,> 50 µM (inactive)
same,GI50,SK-MEL-28,> 50 µM (inactive)
same,GI50,MOLT-4,31.8 µM (inactive)
same,GI50,U-251,> 50 µM (inactive)
same,GI50,MCF7,> 50 µM (inactive)
same,GI50,A549,> 50 µM (inactive)
same,GI50,OVCAR-5,> 50 µM (inactive)
same,GI50,HOP-62,> 50 µM (inactive)
same,GI50,SK-OV-3,> 50 µM (inactive)
CO[P@]1(=O)O[C@@H](c2ccccc2)[C@H](O)[C@@]1(O)c1ccccc1,GI50,UACC-257,> 100 µM (inactive)
same,GI50,HCT-15,> 100 µM
same,GI50,PC-3,> 100 µM (inactive)
same,GI50,UO-31,> 100 µM (inactive)
same,GI50,SN12C,> 100 µM (inactive)
same,GI50,LOX IMVI,> 100 µM (inactive)
same,GI50,Malme-3M,> 100 µM (inactive)
same,GI50,IGROV-1,> 100 µM (inactive)
same,GI50,NCI/ADR-RES,> 100 µM (inactive)
same,GI50,OVCAR-4,> 100 µM (inactive)
same,GI50,SR,> 100 µM (inactive)
same,GI50,SF-295,> 100 µM (inactive)
same,GI50,DU-145,> 100 µM (inactive)
same,GI50,MDA-N,> 100 µM (inactive)
same,GI50,SF-539,> 100 µM (inactive)
same,GI50,COLO 205,> 100 µM (inactive)
same,GI50,CCRF-CEM,> 100 µM (inactive)
same,GI50,SK-MEL-2,> 100 µM (inactive)
same,GI50,SNB-75,> 100 µM (inactive)
same,GI50,SNB-19,> 100 µM (inactive)
same,GI50,MDA-MB-231,> 100 µM (inactive)
same,GI50,A498,> 100 µM (inactive)
same,GI50,SW-620,> 100 µM (inactive)
same,GI50,HCT-116,> 100 µM (inactive)
same,GI50,NCI-H23,> 100 µM (inactive)
same,GI50,HT-29,> 100 µM (inactive)
same,GI50,MDA-MB-435,> 100 µM (inactive)
same,GI50,OVCAR-8,> 100 µM (inactive)
same,GI50,NCI-H522,> 100 µM (inactive)
same,GI50,BT-549,> 100 µM (inactive)
same,GI50,CAKI-1,> 100 µM (inactive)
same,GI50,NCI-H226,> 100 µM (inactive)
same,GI50,EKVX,> 100 µM (inactive)
same,GI50,KM12,> 100 µM (inactive)
same,GI50,786-0,> 100 µM (inactive)
same,GI50,NCI-H460,> 100 µM (inactive)
same,GI50,UACC-62,> 100 µM (inactive)
same,GI50,RXF 393,> 100 µM (inactive)
same,GI50,K562,> 100 µM (inactive)
same,GI50,TK-10,> 100 µM (inactive)
same,GI50,ACHN,> 100 µM (inactive)
same,GI50,HOP-92,> 100 µM (inactive)
same,GI50,OVCAR-3,> 100 µM (inactive)
same,GI50,T47D,> 100 µM (inactive)
same,GI50,M14,> 100 µM (inactive)
same,GI50,HL-60,> 100 µM (inactive)
same,GI50,SK-MEL-5,> 100 µM (inactive)
same,GI50,SK-MEL-28,> 100 µM (inactive)
same,GI50,MOLT-4,> 100 µM (inactive)
same,GI50,U-251,> 100 µM (inactive)
same,GI50,MCF7,> 100 µM (inactive)
same,GI50,A549,> 100 µM (inactive)
same,GI50,OVCAR-5,> 100 µM (inactive)
same,GI50,SK-OV-3,> 100 µM (inactive)
